Source: article PMC8424372 (Journal of Pharmaceutical Analysis, 2020)
Where two headings read alike, the source gives them in different places.

How the values were obtained:
[1] = Freeze-thaw stability in human plasma; assay type: in vitro ADME; details: −80 °C/25 °C, mean ± SD, n = 5, %
[2] = assay type: in vivo, human; details: for Shape of plasma concentration-time profile: after oral Gumiganghwal-tang tablets (9.6 g), humans; for AUC(0-inf) / Cmax / Tmax / half-life / Vd/F: male, human, po, 9.6 g; for Detection in human plasma: after oral Gumiganghwal-tang tablets at maximum daily dose (9.6 g)

Row | Compound | Freeze-thaw stability (3 cycles) ([1]; spiked conc. 2 ng/mL) | Freeze-thaw stability (3 cycles) ([1]; spiked conc. 400 ng/mL) | Shape of plasma concentration-time profile [2] | AUC(0-inf) ([2]; plasma) | Cmax ([2]; plasma) | Tmax ([2]; plasma) | half-life ([2]; plasma) | Detection in human plasma [2] | further results
1 | O=c1ccc2cc3ccoc3c(O)c2o1 [Xanthotoxol, xanthotoxol] | 102.24 ± 4.31% | 98.83 ± 2.95% | double peaks | 110 ± 38.6 ng·h/mL | 3.78 ± 1.39 ng/mL | 4.48 ± 1.76 h | 539 ± 181 min | – | –
2 | O=c1cc(-c2ccccc2)oc2cc(O)c(O)c(O)c12 [Baicalein, baicalein] | 96.92 ± 5.31% | 100.00 ± 2.30% | double peaks | 540 ± 122 ng·h/mL | 52.6 ± 21.2 ng/mL | 0.78 ± 0.23 h | 467 ± 115 min | – | –
3 | C=CCc1ccc(OC)c(OC)c1 [Methyl eugenol, methyl eugenol] | – | 101.10 ± 2.84% | – | – | – | – | – | not detected | Freeze-thaw stability (3 cycles) ([1]; spiked conc. 5 ng/mL): 98.48 ± 2.51%
4 | CC1(C)O[C@H]1COc1c2ccoc2cc2oc(=O)ccc12 [Oxypeucedanin, oxypeucedanin] | 100.16 ± 1.88% | 99.31 ± 2.36% | double peaks | 449 ± 103 ng·h/mL | 4.46 ± 1.29 ng/mL | 8.25 ± 2.07 h | 4230 ± 638 min | – | Vd/F ([2]; plasma): 275 ± 56.4 L
5 | OC[C@H]1O[C@@H](O[C@@H]2OC=C[C@H]3[C@H](O)[C@@H]4O[C@]4(CO)[C@@H]23)[C@H](O)[C@@H](O)[C@@H]1O [Catalpol, catalpol] | 101.28 ± 2.95% | – | – | – | – | – | – | not detected | Freeze-thaw stability (3 cycles) ([1]; spiked conc. 500 ng/mL): 100.03 ± 2.84%
6 | OCC1=C[C@@H](O)[C@@H]2C=CO[C@@H](O[C@@H]3O[C@H](CO)[C@@H](O)[C@H](O)[C@H]3O)[C@H]12 [Aucubin, aucubin] | 97.78 ± 4.39% | – | – | – | – | – | – | not detected | Freeze-thaw stability (3 cycles) ([1]; spiked conc. 500 ng/mL): 100.15 ± 2.79%
7 | CC(C)=CCOc1c2occc2cc2ccc(=O)oc12 [Imperatorin, imperatorin] | 98.44 ± 2.60% | 101.28 ± 2.93% | – | – | – | – | – | not detected | –
8 | CC(C)=CC(O)C/C(C)=C/COc1c2ccoc2cc2oc(=O)ccc12 (stereo not drawn) [Notopterol, notopterol] | 97.79 ± 3.42% | 99.46 ± 2.59% | – | – | – | – | – | not detected | –

The next lines start with results.

Row | Freeze-thaw stability (3 cycles) ([1]; spiked conc. 2 ng/mL) | Freeze-thaw stability (3 cycles) ([1]; spiked conc. 400 ng/mL) | Shape of plasma concentration-time profile [2] | AUC(0-inf) ([2]; plasma) | Cmax ([2]; plasma) | Tmax ([2]; plasma) | half-life ([2]; plasma) | Detection in human plasma [2] | Compound | further results
9 | 99.53 ± 2.03% | 97.95 ± 3.22% | double peaks | – | – | – | – | – | O=C(O)[C@H]1O[C@@H](Oc2cc3oc(-c4ccccc4)cc(=O)c3c(O)c2O)[C@H](O)[C@@H](O)[C@@H]1O [Baicalin, baicalin] | AUC(0-inf) ([2]; in vivo): 805000 ± 121000 ng·h/mL; Cmax ([2]; in vivo): 34300 ± 5220 ng/mL; Tmax ([2]; in vivo): 7.99 ± 1.52 h; Vd/F ([2]; in vivo): 2.5 ± 0.21 L; half-life ([2]; in vivo): 867 ± 239 min
10 | – | – | double peaks | 988 ± 125 ng·h/mL | 89.7 ± 14.4 ng/mL | 6.42 ± 1.01 h | 728 ± 137 min | – | CC1(C)[C@@H](O)CC[C@]2(C)[C@H]3C(=O)C=C4[C@@H]5C[C@@](C)(C(=O)O)CC[C@]5(C)CC[C@@]4(C)[C@]3(C)CC[C@@H]12 [18-beta-glycyrrhetinic acid] | –
11 | 97.58 ± 4.38% | 99.43 ± 2.90% | double peaks | 67.6 ± 15.3 ng·h/mL | 2.16 ± 1.04 ng/mL | 8.04 ± 1.16 h | 1730 ± 254 min | – | CC1(C)[C@@H](O[C@H]2O[C@H](C(=O)O)[C@@H](O)[C@H](O)[C@H]2O[C@@H]2O[C@H](C(=O)O)[C@@H](O)[C@H](O)[C@H]2O)CC[C@]2(C)[C@H]3C(=O)C=C4[C@@H]5C[C@@](C)(C(=O)O)CC[C@]5(C)CC[C@@]4(C)[C@]3(C)CC[C@@H]12 [Glycyrrhizin, glycyrrhizin] | Vd/F ([2]; plasma): 5860 ± 1090 L
12 | 99.57 ± 2.04% | 96.73 ± 4.82% | double peaks | 417 ± 99.3 ng·h/mL | 17.5 ± 5.6 ng/mL | 4.33 ± 1.21 h | 1450 ± 317 min | – | C=C1CCC[C@]2(C)C[C@]3(O)OC(=O)C(C)=C3C[C@@H]12 [Atractylenolide III, atractylenolide III] | Vd/F ([2]; plasma): 26.2 ± 6.26 L
